The values that follow come from US20250042905A1, “DIHYDROPYRROLO[3,4-C]PYRAZOLE DERIVATIVES AND THEIR USE IN DIAGNOSIS” (AC IMMUNE SA, priority 2021, published 2025).

Read-outs that look alike come from different tables or passages of the source.

The test has as its target T1, PD brain-derived alpha-synuclein aggregates (Homo sapiens, UniProt P37840).
T1 construct: PD brain-derived alpha-synuclein aggregates were spotted onto microarray slides; from tissue; host or cells: human Parkinson's disease patient brain
Description: Micro-radiobinding competition assay for the determination of binding affinity. The note with it: for inhibition at 0.1 µM: read-out: Competition at 100 nM (%); for inhibition at 1 µM: read-out: Competition at 1 μM (%); for Ki: concentration range 0.05 nM to 2 μM, nonlinear regression, one site specific binding model. As for the experimental part: Micro-Radiobinding Competition Assay for the Determination of Binding Affinity
PD brain-derived alpha-synuclein aggregates were spotted onto microarray slides. The slides were incubated with tritiated reference alpha-synuclein ligand at 20 nM or 30 nM and the example compounds (non-radiolabelled) at 1 μM and 100 nM. In some cases, the non-radiolabelled example compounds were further assessed for a range of different concentrations, varying from 0.05 nM to 2 μM. After incubation, slides were washed and scanned by a real-time autoradiography system (BeaQuant, ai4R). Quantification of the signal was performed by using the Beamage image analysis software (ai4R). Non-specific signal was determined with an excess of non-radiolabelled reference alpha-synuclein ligand (2 μM) and specific binding was calculated by subtracting the non-specific signal from the total signal. Competition was calculated as percent, where 0% was defined as the specific binding in the presence of vehicle and 100% as the values obtained in the presence of excess of the non-radiolabelled reference alpha-synuclein ligand. Ki values were calculated in GraphPad Prism7 by applying a nonlinear regression curve fit using a one site, specific binding model. All measurements were performed with at least two technical replicates.
Table 4: Assessment of binding affinity by micro-radiobinding competition assay on human PD brain-derived alpha-synuclein aggregates.

Where [1] appears, read: non-radiolabelled example compound at 100 nM, competition with tritiated reference alpha-synuclein ligand (20 nM or 30 nM), 100% = excess non-radiolabelled reference ligand.
The mark [2] stands for this setting: non-radiolabelled example compound at 1 μM, competition with tritiated reference alpha-synuclein ligand (20 nM or 30 nM), 100% = excess non-radiolabelled reference ligand.

Take `COc1cncc(N2Cc3nn(-c4cnc(N5CC[C@H](F)C5)cn4)cc3C2=O)c1` [Example 10, (S)-2-(5-(3-fluoropyrrolidin-1-yl)pyrazin-2-yl)-5-(5-methoxypyridin-3-yl)-5,6-dihydropyrrolo[3,4-c]pyrazol-4(2H)-one]: the inhibition at 0.1 µM was determined as 59% and the inhibition at 1 µM was 82%.

Regarding `O=C1c2cn(-c3ccc(N4CC[C@H](F)C4)nn3)nc2CN1c1cncs1` [Example 25, (S)-2-(6-(3-fluoropyrrolidin-1-yl)pyridazin-3-yl)-5-(thiazol-5-yl)-5,6-dihydropyrrolo[3,4-c]pyrazol-4(2H)-one], the Ki worked out at 222 nM. Further, the inhibition at 0.1 µM under setting [1] is 17%. The inhibition at 1 µM under setting [2] amounted to 73%.

Consider `Cc1ccc(N2Cc3nn(-c4ccc(N5CC[C@H](F)C5)nn4)cc3C2=O)cn1` [Example 30, (S)-2-(6-(3-fluoropyrrolidin-1-yl)pyridazin-3-yl)-5-(6-methylpyridin-3-yl)-5,6-dihydropyrrolo[3,4-c]pyrazol-4(2H)-one], for which, under setting [1], the inhibition at 0.1 µM came out at 4%. The inhibition at 1 µM under setting [2] was 39%.

For `Cc1ccc(N2Cc3nn(-c4cnc(N5CC[C@@H](F)C5)cn4)cc3C2=O)cn1` [Example 17, (R)-2-(5-(3-fluoropyrrolidin-1-yl)pyrazin-2-yl)-5-(6-methylpyridin-3-yl)-5,6-dihydropyrrolo[3,4-c]pyrazol-4(2H)-one], under setting [1], the inhibition at 0.1 µM amounted to 46%. Further, the inhibition at 1 µM under setting [2] turned out to be 91%.

For the compound `Cc1ccc(N2Cc3nn(-c4ccc(N5CC[C@@H](F)C5)nn4)cc3C2=O)cn1` [Example 29, (R)-2-(6-(3-fluoropyrrolidin-1-yl)pyridazin-3-yl)-5-(6-methylpyridin-3-yl)-5,6-dihydropyrrolo[3,4-c]pyrazol-4(2H)-one], under setting [1], the inhibition at 0.1 µM is 15%. The inhibition at 1 µM under setting [2] worked out at 42%.

`COc1cncc(N2Cc3nn(-c4ccc(N5CC[C@@H](F)C5)nn4)cc3C2=O)c1` [Example 23, (R)-2-(6-(3-fluoropyrrolidin-1-yl)pyridazin-3-yl)-5-(5-methoxypyridin-3-yl)-5,6-dihydropyrrolo[3,4-c]pyrazol-4(2H)-one] gave a Ki of 182 nM. Further, the inhibition at 0.1 µM under setting [1] worked out at 65%. The inhibition at 1 µM under setting [2] came to 76%.

For `Cn1cc(N2Cc3nn(-c4ccc(N5CC[C@@H](F)C5)nn4)cc3C2=O)cn1` [Example 21, (R)-2-(6-(3-fluoropyrrolidin-1-yl)pyridazin-3-yl)-5-(1-methyl-1H-pyrazol-4-yl)-5,6-dihydropyrrolo[3,4-c]pyrazol-4(2H)-one], under setting [1], the inhibition at 0.1 µM was 65%. Further, the inhibition at 1 µM under setting [2] was 86%.

Consider `O=C1c2cn(-c3cnc(N4CC[C@H](F)C4)cn3)nc2CN1c1cccnc1` [Example 2, (S)-2-(5-(3-fluoropyrrolidin-1-yl)pyrazin-2-yl)-5-(pyridin-3-yl)-5,6-dihydropyrrolo[3,4-c]pyrazol-4(2H)-one], for which the inhibition at 0.1 µM is 74% and the inhibition at 1 µM came out at 98%.

As for `O=C1c2cn(-c3cnc(N4CCCC(F)CC4)cn3)nc2CN1c1cccnc1` (centres unmarked) [Example 15, 2-(5-(4-fluoroazepan-1-yl)pyrazin-2-yl)-5-(pyridin-3-yl)-5,6-dihydropyrrolo[3,4-c]pyrazol-4(2H)-one], the inhibition at 0.1 µM under setting [1] stood at 39%. Also, the inhibition at 1 µM under setting [2] came to 67%.
